How the values were obtained:
[1] = molecular target: T1, VIM-2 metallo β-lactamase (Pseudomonas aeruginosa, UniProt Q9K2N0); assay: β-lactamase enzyme inhibition, VIM-2; format: biochemical; conditions: Nitrocefin 100 μM, 486 nm; 15 min at 37° C. preincubation; read-out: IC50 VIM-2 (Class B)
T1 construct: made in house; host or cells: E. coli BL21(DE3)
In short: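 VIM-2 purified by Q sepharose anion exchange (50 mM Hepes pH 7.5, 0-600 mM NaCl gradient, two runs, >90% purity). Enzyme preincubated with inhibitor 15 min at 37° C; nitrocefin 100 μM final, absorbance at 486 nm followed 10 min. IC50 from initial hydrolysis rates versus inhibitor-free controls.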

[2] = molecular target: T2, OXA-1 β-lactamase (Escherichia coli, UniProt P13661); assay: β-lactamase enzyme inhibition, OXA-1; format: biochemical; conditions: Nitrocefin 100 μM, 486 nm; 15 min at 37° C. preincubation; read-out: IC50 OXA-1 (Class D)
T2 construct: made in house; host or cells: E. coli BL21(DE3)
In short: (§1)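 IC50 values reflect inhibitor concentrations halving the initial hydrolysis rate relative to uninhibited wells. Untagged recombinant enzymes were exposed to inhibitor at 37° C for 15 min before substrate addition: 100 μM nitrocefin for OXA-1 and p99 AmpC, imipenem for KPC-2, cefotaxime for SHV-5, each monitored spectrophotometrically for 10 min.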

[3] = tested on: S. aureus MSSA-7 producing penicillinase PC-1; assay: broth microdilution MIC, S. aureus PC-1; format: cell-based; conditions: Fixed Pip (piperacillin) 4 μg/mL
In short: (§2)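 Visual MIC readout after 16-20 hours at 37° C, reflecting compound concentration that restores growth inhibition by a beta-lactam held constant at 4 μg/mL. Compound was titrated 2-fold, 32 to 0.25 μg/mL final, in cation-adjusted Mueller Hinton broth.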

[4] = tested on: E. cloacae 144200 expressing Class C P99 AmpC; assay: broth microdilution MIC, E. cloacae P99; format: cell-based; conditions: Fixed CAZ (ceftazidime) 4 μg/mL
In short: as §2

[5] = molecular target: T3, KPC-2 β-lactamase (Klebsiella pneumoniae, UniProt Q9F663); assay: β-lactamase enzyme inhibition, KPC-2; format: biochemical; conditions: imipenem substrate, 300 nm; 15 min at 37° C. preincubation; read-out: IC50 KPC-2 (Class A)
T3 construct: made in house; host or cells: E. coli BL21(DE3)
In short: as §1

[6] = tested on: E. coli ESBL4 expressing CTX-M-15; assay: broth microdilution MIC, E. coli CTX-M-15; format: cell-based; conditions: Fixed CAZ (ceftazidime) 4 μg/mL
In short: as §2

[7] = molecular target: T4, p99 AmpC β-lactamase (Enterobacter cloacae, UniProt P05364); assay: β-lactamase enzyme inhibition, p99 AmpC; format: biochemical
T4 construct: made in house; host or cells: E. coli BL21(DE3)
In short: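 Native untagged E. cloacae p99 AmpC was expressed in E. coli BL21(DE3) and purified by cation exchange and gel filtration. Enzyme was preincubated with inhibitor at 37°C for 15 min.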

[8] = tested on: K. pneumoniae 156319 expressing KPC-3; assay: broth microdilution MIC, K. pneumoniae KPC-3; format: cell-based; conditions: Fixed Mero (meropenem) 4 μg/mL
In short: as §2

[9] = molecular target: T5, SHV-5 β-lactamase (Klebsiella pneumoniae, UniProt P0A3M1); assay: β-lactamase enzyme inhibition, SHV-5; format: biochemical
T5 construct: made in house; host or cells: E. coli BL21(DE3)
In short: as §1

[10] = tested on: K. pneumoniae A-1797 expressing KPC-2 and VIM-4; assay: broth microdilution MIC, K. pneumoniae KPC-2 and VIM-4; format: cell-based; conditions: Fixed Mero (meropenem) 4 μg/mL
In short: as §2

[11] = tested on: P. aeruginosa Ps296 expressing VIM-2; assay: broth microdilution MIC, P. aeruginosa VIM-2; format: cell-based; conditions: Fixed Mero (meropenem) 4 μg/mL
In short: as §2

T5 sequence (P0A3M1 22-286): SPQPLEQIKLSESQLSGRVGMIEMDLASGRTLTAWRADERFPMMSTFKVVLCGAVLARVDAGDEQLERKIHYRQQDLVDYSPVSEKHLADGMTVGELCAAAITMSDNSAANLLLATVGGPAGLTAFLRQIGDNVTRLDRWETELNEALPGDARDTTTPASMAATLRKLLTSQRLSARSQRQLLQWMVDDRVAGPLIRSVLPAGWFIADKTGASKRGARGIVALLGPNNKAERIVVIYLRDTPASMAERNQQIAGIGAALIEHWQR
T2 sequence (P13661 26-276): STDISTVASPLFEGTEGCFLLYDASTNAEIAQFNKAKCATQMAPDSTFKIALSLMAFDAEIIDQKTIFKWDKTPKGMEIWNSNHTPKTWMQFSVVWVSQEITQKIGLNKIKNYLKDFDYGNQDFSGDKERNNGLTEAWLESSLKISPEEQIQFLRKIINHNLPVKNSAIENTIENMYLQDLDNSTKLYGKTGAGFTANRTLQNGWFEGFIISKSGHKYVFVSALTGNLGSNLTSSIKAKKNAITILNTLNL
T4 sequence (P05364 21-381): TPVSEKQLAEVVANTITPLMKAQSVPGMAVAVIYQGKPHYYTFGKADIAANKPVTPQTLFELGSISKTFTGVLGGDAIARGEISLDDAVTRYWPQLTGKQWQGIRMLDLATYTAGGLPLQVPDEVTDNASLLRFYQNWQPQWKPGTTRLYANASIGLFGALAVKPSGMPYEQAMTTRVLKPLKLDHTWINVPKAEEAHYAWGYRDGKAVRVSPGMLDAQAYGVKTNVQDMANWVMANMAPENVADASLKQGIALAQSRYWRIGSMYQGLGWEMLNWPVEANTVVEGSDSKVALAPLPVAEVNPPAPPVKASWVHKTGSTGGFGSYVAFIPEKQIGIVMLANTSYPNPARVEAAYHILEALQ
T3 sequence (Q9F663 25-293, looked up): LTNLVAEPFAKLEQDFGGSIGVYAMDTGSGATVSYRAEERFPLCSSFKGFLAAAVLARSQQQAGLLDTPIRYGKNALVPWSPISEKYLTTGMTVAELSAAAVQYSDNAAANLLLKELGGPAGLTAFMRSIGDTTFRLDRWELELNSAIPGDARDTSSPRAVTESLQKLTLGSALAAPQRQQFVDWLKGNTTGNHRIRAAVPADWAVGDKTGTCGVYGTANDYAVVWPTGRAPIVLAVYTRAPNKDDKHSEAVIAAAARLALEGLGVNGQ

| SMILES | IC50 [1] [nM] | IC50 [2] [nM] | MIC of exemplary compounds in presence of fixed β-lactams, S. aureus MSSA-7 PC-1 [3] | MIC of exemplary compounds in presence of fixed β-lactams, E. cl. 144200 p99 AmpC [4] | IC50 [5] [nM] | MIC of exemplary compounds in presence of fixed β-lactams, E. coli ESBL4 CTX-M-15 [6] | IC50 [7] [nM] | MIC of exemplary compounds in presence of fixed β-lactams, K.P. 156319 KPC-3 [8] | IC50 [9] [nM] | MIC of exemplary compounds in presence of fixed β-lactams, K.P. A-1797 KPC-2 VIM-4 [10] | MIC of exemplary compounds in presence of fixed β-lactams, P. aerug. Ps296 VIM-2 [11] |
| --- | --- | --- | --- | --- | --- | --- | --- | --- | --- | --- | --- |
| CC(=O)N[C@H]1Cc2cccc(C(=O)O)c2OB1O [Example 61, (R)-3-Acetylamino-2-hydroxy-3,4-dihydro-2H-benzo[e][1,2]oxaborinine-8-carboxylic acid] | 1000 to 10000 | 100 to 1000 | C (C represents the MIC in the presence of ≤4 g/mL of a β-lactamase inhibitor) | C (C represents the MIC in the presence of ≤4 g/mL of a β-lactamase inhibitor) | < 100 | C (C represents the MIC in the presence of ≤4 g/mL of a β-lactamase inhibitor) | < 100 | C (C represents the MIC in the presence of ≤4 g/mL of a β-lactamase inhibitor) | 100 to 1000 | B (B represents the MIC in the presence of between 8 and 32 g/mL of a β-lactamase inhibitor) | C (C represents the MIC in the presence of ≤4 g/mL of a β-lactamase inhibitor) |
| O=C(Cc1ccc2c(c1)CNC2)N[C@H]1Cc2cccc(C(=O)O)c2OB1O [Example 64, (R)-3-(2-2,3-Dihydro-1H-isoindol-5-yl-acetylamino)-2-hydroxy-3,4-dihydro-2H-benzo[e][1,2]oxaborinine-8-carboxylic acid] | 100 to 1000 | < 100 | C (C represents the MIC in the presence of ≤4 g/mL of a β-lactamase inhibitor) | C (C represents the MIC in the presence of ≤4 g/mL of a β-lactamase inhibitor) | < 100 | C (C represents the MIC in the presence of ≤4 g/mL of a β-lactamase inhibitor) | < 100 | C (C represents the MIC in the presence of ≤4 g/mL of a β-lactamase inhibitor) | < 100 | B (B represents the MIC in the presence of between 8 and 32 g/mL of a β-lactamase inhibitor) | C (C represents the MIC in the presence of ≤4 g/mL of a β-lactamase inhibitor) |

Reference: patent US11008346B2, “Beta-lactamase inhibitors” (priority 2014, dated 2021)
